Values joined by “and” are separate entries in the source; they are usually repeats but may differ in a detail not shown here. Equal entries are not always repeated. Marks after values point to notes of the source that are not given here.
Assays:
[1] = tested on: Metaphase II porcine oocytes; test: Parthenogenetic activation of porcine oocytes by TPEN alone; format: cell-based, pig
Protocol: Oocytes were obtained from either pre-pubertal gilt ovaries from an abattoir (Farmland Foods Inc., Milan, Mo.), or sow-derived oocytes that were purchased from Applied Reproductive Technology (Madison, Wis.). Immature oocytes from gilt ovaries were aspirated from medium size (3-6 mm) follicles by using an 18 gauge hypodermic needle attached to a 10 mL syringe. Oocytes with evenly dark cytoplasm and intact surrounding cumulus cells were then selected for maturation. Around 50 cumulus oocyte complexes were place in a well containing 500 μL of maturation medium, TCM 199 (Invitrogen, Grand Island, N.Y.) with 3.05 mM glucose, 0.91 mM sodium pyruvate, 0.57 mM cysteine, 10 ng/mL epidermal growth factor (EGF), 0.5 mg/mL luteinizing hormone (LH), 0.5 mg/mL follicle stimulating hormone (FSH), 10 ng/mL gentamicin (APP Pharm, Schaumburg, Ill.), and 0.1% polyvinyl alcohol (PVA) for 42-44 hr at 38.5° C., 5% CO2, in humidified air. The oocytes from sows were shipped overnight in maturation medium (TCM199 with 2.9 mM Hepes, […], 10 ng/mL EGF, 0.5 mg/mL p-FSH, 0.91 mM pyruvate, 0.5 mM cysteine, 10% porcine follicular fluid, 25 ng/mL gentamicin) and transferred into fresh medium at 24 hr. At the end of the maturation, the surrounding cumulus cells were removed from the oocytes by vortexing for 3 min in the presence of 0.1% hyaluronidase. Oocytes with a visible polar body were selected in manipulation medium (TCM199 with 0.6 mM NaHCO3, 2.9 mM Hepes, 30 mM NaCl, 10 ng/mL gentamicin, and 3 mg/mL bovine serum albumin [BSA]; and osmolarity of 305) and then used for the experiments. Different oocyte activation methods were used for the experiments. As conventional activation methods, either electrical or chemical activation was used. For electrical activation, mature oocytes were activated in activation medium (0.3 M mannitol, 1.0 mM CaCl2, 0.1 mM MgCl2, and 0.5 mM Hepes) by two direct-current (DC) pulses (1-sec interval) at 1.2 kV/cm for 30 μsec (using BTX Electro Cell Manipulator, Harvard Apparatus, Holliston, Mass.). […] For TPEN mediated activation, mature oocytes were incubated in TL-Hepes media with various concentrations of TPEN for different durations. […] At the end of the culture, where applicable, the frequency of cleaved embryos and blastocysts, and total cell number in the blastocysts were recorded. Hoechst 33342 (1.2 mg/mL) was used to stain nuclei and the embryos were then evaluated by epi-fluorescence microscopy. Metaphase II porcine oocytes were incubated in vitro with TPEN to determine if the concentration/duration of 100 μM of TPEN for 45 min, as described in the mouse study by Suzuki, et al. (Development 137, 2659-2669, 2010) had any effect on pig oocytes. […] A wide range of TPEN concentrations/durations was tested to identify an optimum concentration of TPEN that can activate pig oocytes; 100 μM, 200 μM, and 250 μM and 30 min-2.5 hours of duration were tested (Table 1). Optimum embryo development was achieved by using 200 μM TPEN for 30 min.

porcine oocytes = test: TPEN as main oocyte activating reagent after a smaller Ca2+ increase (electroporation in 0.1 mM Ca2+); format: cell-based, pig; conditions: for Day 6 Blastocysts (%) / Day 7 Blastocysts (%): 0.1 mM Ca2+ electroporation
Protocol: Oocytes were obtained from either pre-pubertal gilt ovaries from an abattoir (Farmland Foods Inc., Milan, Mo.), or sow-derived oocytes that were purchased from Applied Reproductive Technology (Madison, Wis.). Immature oocytes from gilt ovaries were aspirated from medium size (3-6 mm) follicles by using an 18 gauge hypodermic needle attached to a 10 mL syringe. Oocytes with evenly dark cytoplasm and intact surrounding cumulus cells were then selected for maturation. Around 50 cumulus oocyte complexes were place in a well containing 500 μL of maturation medium, TCM 199 (Invitrogen, Grand Island, N.Y.) with 3.05 mM glucose, 0.91 mM sodium pyruvate, 0.57 mM cysteine, 10 ng/mL epidermal growth factor (EGF), 0.5 mg/mL luteinizing hormone (LH), 0.5 mg/mL follicle stimulating hormone (FSH), 10 ng/mL gentamicin (APP Pharm, Schaumburg, Ill.), and 0.1% polyvinyl alcohol (PVA) for 42-44 hr at 38.5° C., 5% CO2, in humidified air. […] At the end of the maturation, the surrounding cumulus cells were removed from the oocytes by vortexing for 3 min in the presence of 0.1% hyaluronidase. Oocytes with a visible polar body were selected in manipulation medium (TCM199 with 0.6 mM NaHCO3, 2.9 mM Hepes, 30 mM NaCl, 10 ng/mL gentamicin, and 3 mg/mL bovine serum albumin [BSA]; and osmolarity of 305) and then used for the experiments. Different oocyte activation methods were used for the experiments. As conventional activation methods, either electrical or chemical activation was used. For electrical activation, mature oocytes were activated in activation medium (0.3 M mannitol, 1.0 mM CaCl2, 0.1 mM MgCl2, and 0.5 mM Hepes) by two direct-current (DC) pulses (1-sec interval) at 1.2 kV/cm for 30 μsec (using BTX Electro Cell Manipulator, Harvard Apparatus, Holliston, Mass.). […] For TPEN mediated activation, mature oocytes were incubated in TL-Hepes media with various concentrations of TPEN for different durations. […] At the end of the culture, where applicable, the frequency of cleaved embryos and blastocysts, and total cell number in the blastocysts were recorded. Hoechst 33342 (1.2 mg/mL) was used to stain nuclei and the embryos were then evaluated by epi-fluorescence microscopy. […] The ability of TPEN as the main activating reagent was therefore tested. […] Then the oocytes were incubated with various concentrations (1 μM, 5 μM, 10 μM, 100 μM and 200 μM) and durations (10 minutes, 20 minutes, 30 minutes, 1 hour, 2 hours, and overnight) of TPEN. […] Optimal oocyte activation was observed when oocytes were activated by a smaller Ca^2+ signal followed by incubating in 200 μM TPEN for 30 min.

c1ccc(CN(CCN(Cc2ccccn2)Cc2ccccn2)Cc2ccccn2)nc1 [TPEN, N,N,N′,N′-tetrakis(2-pyridylmethyl)ethane-1,2-diamine]
Frequency of forming blastocysts on day 7 ([1]; 100 μM of TPEN for 45 min): 13%
blastocyst formation on day 5 ([1]; 100 μM of TPEN for 45 min): No blastocyst formation was observed
expanded blastocysts on day 7 ([1]; 100 μM of TPEN for 45 min): no expanded blastocysts
toxic effect on embryo development ([1]; 250 μM TPEN over 2.5 hours): toxic effect
% blastocysts ([1]; TPEN alone, 100 μM, 2 hr): 12.0%
% blastocysts ([1]; TPEN alone, 200 μM, 30 min): 23.0%
total number of nuclei in blastocysts ([1]; TPEN alone, 200 μM, 30 min): 27.2±1.92
% blastocysts ([1]; TPEN alone, 200 μM, 1 hr): 20.0%
% blastocysts ([1]; TPEN alone, 250 μM, 2 hr): 10.0%
cell numbers in day 7 blastocysts (porcine oocytes; 1 μM TPEN overnight): 24.80±7.84
number of blastocysts at day 6 and 7 (porcine oocytes; 1 μM TPEN overnight): increased number of blastocysts
cell numbers in day 7 blastocysts (porcine oocytes; 10 μM TPEN for 1 hour): 30.17±5.97
cell numbers in day 7 blastocysts (porcine oocytes; 10 μM TPEN for 2 hours): 29.63±10.47
cell numbers in day 7 blastocysts (porcine oocytes; 100 μM TPEN for 20 minutes): 50.75±17.94
Day 6 Blastocysts (%) (porcine oocytes; then TPEN 10 μM, 30 min): 0% and 0^b %
Day 7 Blastocysts (%) (porcine oocytes; then TPEN 10 μM, 30 min): 5^b %
Day 6 Blastocysts (%) (porcine oocytes; then TPEN 10 μM, 1 hour): 15^a %
Day 7 Blastocysts (%) (porcine oocytes; then TPEN 10 μM, 1 hour): 22.5^a %
Day 6 Blastocysts (%) (porcine oocytes; then TPEN 10 μM, 2 hours): 15^a %
Day 7 Blastocysts (%) (porcine oocytes; then TPEN 10 μM, 2 hours): 25^a %
Day 6 Blastocysts (%) (porcine oocytes; then TPEN 100 μM, 10 min): 15^a %
Day 7 Blastocysts (%) (porcine oocytes; then TPEN 100 μM, 10 min): 15^a %
Day 6 Blastocysts (%) (porcine oocytes; then TPEN 100 μM, 20 min): 25^a %
Day 7 Blastocysts (%) (porcine oocytes; then TPEN 100 μM, 20 min): 30^a %
Day 6 Blastocysts (%) (porcine oocytes; then TPEN 200 μM, 30 min): 37.04^c %
Day 7 Blastocysts (%) (porcine oocytes; then TPEN 200 μM, 30 min): 41.98^c %
Day 6 Blastocysts (%) (porcine oocytes; then TPEN 200 μM, 1 hour): 18.75^a %
Day 7 Blastocysts (%) (porcine oocytes; then TPEN 200 μM, 1 hour): 27.5^a %
